Eleven compounds from patent US6342501B1, “Pyrrolo[2,3-d] pyrimidines as antiviral agents” (The Regents of the University of Michigan, priority 1994, dated 2002) can be followed below.

One assay has as its system KB cells. In words: Cytotoxicity: KB cell growth (crystal violet staining). The class given is cell-based. The conditions noted are these: Homo sapiens; Table 1; cytotoxicity, KB cell growth, 48 hours; read-out: KBgrv. As for the experimental part:
(§1) Two different assays were used to explore cytotoxicity of selected compounds: (i) Cytotoxicity produced in stationary HFF cells was determined by microscopic inspection of cells used in plaque assays which were not affected by the virus [Turk, S. R., et al, Antimicrob.
Briefly, 96-well cluster dishes were planted with KB cells at 3000-5000 cells per well. After overnight incubation at 37° C., test compound was added in quadruplicate at six to eight concentrations. Plates were incubated at 37° C for 48 hours in a CO2 incubator, rinsed, fixed with 95% ethanol, and stained with 0.1% crystal violet. Acidified ethanol was added and plates read at 570 nm in a spectrophotometer designed to read 96-well ELISA assay plates.
(§2) Dose-response relationships were constructed by linearly regressing the percent inhibition of parameters derived in the preceding sections against logarithm 10 drug concentrations. […] Samples containing positive controls (acyclovir for HSV-1 and ganciclovir for HCMV) were used in all assays.

Assay [1] concerns human foreskin fibroblasts (HFF cells). As to the kind of experiment: Cytotoxicity in stationary HFF cells (microscopic inspection of plaque assay cells). The class given is cell-based. The conditions noted are these: Table 1, cytotoxicity, stationary HFF cells, visual, read-out: HFF. As for the experimental part:
as §1, §2

Assay [2] concerns human cytomegalovirus (HCMV). As to the kind of experiment: microbe, parasite or virus in culture. The settings on record: for IC50: Human betaherpesvirus 5, HFF, read-out: HCMV; for antiviral activity against HCMV (in words): comment on Table 1 data. The class given is cell-based, Towne strain. As for the experimental part:
(§3) The routine growth and passage of KB and BSC-1 cells was performed in monolayer cultures using minimal essential medium (MEM) with either Hanks salts [MEM(H)] or Earle salts [MEM(E)] supplemented with 10% calf serum. The sodium bicarbonate concentration was varied to meet the buffering capacity required. Cultures of diploid human foreskin fibroblast (HFF) or MRC-5 cells were grown in medium consisting of MEM(E) with 10% fetal bovine serum. Cells were passaged at 1:2 to 1:10 dilutions according to conventional procedures by using 0.05% trypsin plus 0.02% EDTA in a HEPES buffered salt solution (HBS) [Shipman, C., Jr., Proc. Soc. […] HFF and MRC-5 cells were passaged only at 1:2 dilutions. The Towne strain, plaque-purified isolate Po, of HCMV was kindly provided by Dr. Mark Stinski, University of Iowa. The KOS strain of HSV-1 was used in most experiments and was provided by Dr. Sandra K. Weller, University of Conn.
Stock HCMV was prepared by infecting HFF cells at a multiplicity of infection (m.o.i.) of <0.01 plaque-forming units (p.f.u.) per cell. Cell growth medium was changed every four days until cytopathology was evident in all cells (approximately 21 days). Supernatant fluids were retained as the virus stock.
Virus titers were determined using monolayer cultures of HFF cells for HCMV and monolayer cultures of BSC-1 cells for HSV-1 as described earlier [Prichard, M. N., et al., J. Virol. […] Briefly, HFF or BSC-1 cells were planted as described above in 96-well cluster dishes and incubated overnight at 37. degree. C. in a humidified 3% C02 -97% air atmosphere. The next day cultures were inoculated with HCMV or HSV-1 and serially diluted 1:3 across the remaining eleven columns of the 96-well plate. Cultures were incubated at 37. degree. C. for 2 hr to permit virus adsorption and then virus inoculum was replaced with 0.2 ml of fresh medium. Cultures were incubated for seven days for HCMV, two or three days for HSV-1, the medium was removed, and the cell sheets were stained with 0.1% crystal violet in 20% methanol.
HFF cells in 24-well cluster dishes were infected with approximately 100 p.f.u. of HCMV per cm^2 cell sheet using the procedures detailed above. Following virus adsorption, compounds dissolved in growth medium were added to duplicate wells in four to eight selected concentrations. After incubation at 37° C. for 7 to 10 days, cell sheets were fixed, stained with crystal violet and microscopic plaques enumerated as described above.
After virus adsorption, inoculum was replaced with 0.2 mL of fresh medium containing test compounds. The first row of 12 wells was left undisturbed and served as virus controls. Each well in the second row received an additional 0.1 mL of medium with test compound at three times the desired final concentration. The contents of the 12 wells were mixed by repeated pipetting and then serially diluted 1:3 along the remaining wells. In this manner, six compounds could be tested in duplicate on a single plate with concentrations from […]. Plates were incubated at 37° C. for seven days, subjected to one cycle of freezing and thawing; aliquots from each of the eight wells of a given column were transferred to the first column of a fresh 96-well monolayer culture of HFF cells. Contents were mixed and serially diluted 1:3 across the remaining eleven columns of the secondary plate. Each column of the original primary plate was diluted across a separate plate in this manner. Cultures were incubated, plaques were enumerated, and titers calculated as described above.
as §2

For assay [3], the system named is herpes simplex virus type 1 (HSV-1). In words: HSV-1 ELISA in BSC-1 cells. The class given is cell-based, KOS strain. The settings on record: Human alphaherpesvirus 1, 72 h; Table 1; fifty-percent inhibitory concentration, ELISA, BSC-1 cells, 3-day incubation; read-out: HSV-1. How it is done:
as §3
High titer HSV-1 stocks were prepared by infecting BSC cells at an m.o.i. of <0.1 as detailed previously [Turk, S. R., et al., Antimicrob.
Ninety-six-well cluster dishes were planted with 10,000 BSC-1 cells per well in 200 μL per well of MEM(E) plus 10% calf serum. After overnight incubation at 37° C., selected drug concentrations in quadruplicate and HSV-1 at a concentration of 100 p.f.u./well were added. Following a 3-day incubation at 37° C., medium was removed, plates were blocked, rinsed, and horse radish peroxidase conjugated rabbit anti-HSV-1 antibody was added. Following removal of the antibody containing solution, plates were rinsed, and then developed by adding 150 μL per well of a solution of tetramethylbenzidine as substrate. The reaction was stopped with H2SO4 and absorbance was read at 450 and 570 nm. Drug effects were calculated as a percentage of the reduction in absorbance in the presence of each drug concentration compared to absorbance obtained with virus in the absence of drug.
as §2
(In general: ELISA stands for enzyme-linked immunosorbent assay.)

Each structure is given as a SMILES string.

For the compound `N#Cc1c(Br)n(CC=Cc2ccccc2)c2ncnc(N)c12` [Compound 1361, 4-amino-6-bromo-7-(3-phenyl)prop-2-enyl-pyrrolo[2,3-d]pyrimidine-5-carbonitrile], the IC50 (in the assay with KB cells; in assay [1]; in assay [2]; in assay [3]) was more than 100 µM in each case.

Turning to `N#Cc1cn(CCCc2ccccc2)c2ncnc(N)c12` [Compound 1362, 4-amino-7-(3-phenyl)propyl-pyrrolo[2,3-d]pyrimidine-5-carbonitrile], the IC50 with KB cells is more than 100 µM; in assay [1], more than 10 µM; in assay [2], more than 10 µM; in assay [3] it was more than 100 µM.

Regarding `CC(c1ccccc1)n1c(Br)c(C#N)c2c(N)ncnc21` (stereo not drawn) [Compound 1363, 4-amino-6-bromo-7-((2-phenyl)eth-2-yl)-pyrrolo[2,3-d]pyrimidine-5-carbonitrile], the IC50 was 50 µM with KB cells, more than 100 µM in assay [1], 2.7 µM in assay [2] and 90 µM in assay [3]. Besides, the “antiviral activity against HCMV (in words)” value (from here on “antiviral activity”) in assay [2] was “good to excellent antiviral activity”.

`N#Cc1c(N)n(Cc2ccc(F)cc2)c2ncnc(N)c12` [Compound 1365, 4,6-diamino-7-(4-flourobenzyl)-pyrrolo[2,3-d]pyrimidine-5-carbonitrile]: the IC50 in the assay with KB cells is 60 µM; in assay [1], more than 100 µM; in assay [2], 0.3 µM; in assay [3], 33 µM. Besides, in assay [2], the “antiviral activity” value was “good to excellent antiviral activity”.

With `N#Cc1cn(CCc2ccccc2)c2ncnc(N)c12` [Compound 1368, 4-amino-7-(2-phenyl)ethyl-pyrrolo[2,3-d]pyrimidine-5-carbonitrile], the IC50 was more than 100 µM in the assay on KB cells, 32 µM in assay [1], 0.7 µM in assay [2] and 10 µM in assay [3]. Moreover, the “antiviral activity” value in assay [2] is given as “excellent activity”.

Take `N#Cc1c(N)n(CCc2ccccc2)c2ncnc(N)c12` [Compound 1369, 4,6-diamino-7-(2-phenyl)ethyl-pyrrolo[2,3-d]pyrimidine-5-carbonitrile]: the IC50 in the assay with KB cells was 82 µM; in assay [1], 100 µM; in assay [2], less than 0.1 µM; in assay [3], 0.3 µM. Besides, in assay [2], the “antiviral activity” value is recorded as “excellent activity”.

In the case of `N#Cc1cn(CC=Cc2ccccc2)c2ncnc(N)c12` [Compound 1372, 4-amino-7-(3-phenyl)prop-2-enyl-pyrrolo[2,3-d]pyrimidine-5-carbonitrile], the IC50 is more than 100 µM with KB cells, more than 10 µM in assay [1], more than 10 µM in assay [2] and more than 100 µM in assay [3].

Consider `N#Cc1c(Br)n(Cc2ccc(Br)cc2)c2ncnc(N)c12` [Compound 1373, 4-amino-6-bromo-7-(4-bromobenzyl)-pyrrolo[2,3-d]pyrimidine-5-carbonitrile], for which the IC50 with KB cells was more than 100 µM; in assay [1], 10.5 µM; in assay [2], 10.5 µM; in assay [3], more than 100 µM.

Take `N#Cc1c(Br)n(Cc2cccc([N+](=O)[O-])c2)c2ncnc(N)c12` [Compound 1374, 4-amino-6-bromo-7-(3-nitrobenzyl)-pyrrolo[2,3-d]pyrimidine-5-carbonitrile]: the IC50 in the assay on KB cells is more than 100 µM; in assay [1], more than 10 µM; in assay [2] it was more than 10 µM; in assay [3], more than 100 µM.

Take `NC(=O)c1cn(CCCc2ccccc2)c2ncnc(N)c12` [Compound 1376, 4-amino-7-(3-phenyl)propyl-pyrrolo[2,3-d]pyrimidine-5-carboxamide]: the IC50 was determined as 70 µM with KB cells, 100 µM in assay [1], 28 µM in assay [2] and 35 µM in assay [3].

For `N#Cc1cn(Cc2cccc([N+](=O)[O-])c2)c2ncnc(N)c12` [Compound 1382, 4-amino-7-(3-nitrobenzyl)-pyrrolo[2,3-d]pyrimidine-5-carbonitrile], the IC50 in the assay with KB cells is more than 100 µM; in assay [1], more than 10 µM; in assay [2], more than 10 µM; in assay [3], more than 100 µM.
